According to patent US20230257372A1 (CHONG KUN DANG PHARMACEUTICAL CORP., priority 2020, published 2023):
Like-named read-outs stand apart in the source and are kept apart here.

Assays:
human recombinant HDAC1 = molecular target: T1, human recombinant HDAC1 (Homo sapiens, UniProt Q13547); test: HDAC1 enzyme activity inhibition (HDAC Fluorimetric Drug Discovery Kit); assay type: biochemical; conditions: read-out: HDAC1
T1 construct: purchased Enzo Life Science, Inc. BML-SE456
How it was run: (§1)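 Compounds in 5-fold dilution series were incubated with […] enzyme and 10 μM substrate at 30° C for 60 minutes. Fluor de Lys Developer II was then added for 30 minutes to stop the reaction and develop the fluorescent signal.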

human recombinant HDAC6 = molecular target: T2, human recombinant HDAC6 (Homo sapiens, UniProt Q9UBN7); test: HDAC6 enzyme activity inhibition (HDAC Fluorimetric Drug Discovery Kit); assay type: biochemical
T2 construct: purchased Calbiochem Inc. 382180
T2 sequence (Q9UBN7 1-1215): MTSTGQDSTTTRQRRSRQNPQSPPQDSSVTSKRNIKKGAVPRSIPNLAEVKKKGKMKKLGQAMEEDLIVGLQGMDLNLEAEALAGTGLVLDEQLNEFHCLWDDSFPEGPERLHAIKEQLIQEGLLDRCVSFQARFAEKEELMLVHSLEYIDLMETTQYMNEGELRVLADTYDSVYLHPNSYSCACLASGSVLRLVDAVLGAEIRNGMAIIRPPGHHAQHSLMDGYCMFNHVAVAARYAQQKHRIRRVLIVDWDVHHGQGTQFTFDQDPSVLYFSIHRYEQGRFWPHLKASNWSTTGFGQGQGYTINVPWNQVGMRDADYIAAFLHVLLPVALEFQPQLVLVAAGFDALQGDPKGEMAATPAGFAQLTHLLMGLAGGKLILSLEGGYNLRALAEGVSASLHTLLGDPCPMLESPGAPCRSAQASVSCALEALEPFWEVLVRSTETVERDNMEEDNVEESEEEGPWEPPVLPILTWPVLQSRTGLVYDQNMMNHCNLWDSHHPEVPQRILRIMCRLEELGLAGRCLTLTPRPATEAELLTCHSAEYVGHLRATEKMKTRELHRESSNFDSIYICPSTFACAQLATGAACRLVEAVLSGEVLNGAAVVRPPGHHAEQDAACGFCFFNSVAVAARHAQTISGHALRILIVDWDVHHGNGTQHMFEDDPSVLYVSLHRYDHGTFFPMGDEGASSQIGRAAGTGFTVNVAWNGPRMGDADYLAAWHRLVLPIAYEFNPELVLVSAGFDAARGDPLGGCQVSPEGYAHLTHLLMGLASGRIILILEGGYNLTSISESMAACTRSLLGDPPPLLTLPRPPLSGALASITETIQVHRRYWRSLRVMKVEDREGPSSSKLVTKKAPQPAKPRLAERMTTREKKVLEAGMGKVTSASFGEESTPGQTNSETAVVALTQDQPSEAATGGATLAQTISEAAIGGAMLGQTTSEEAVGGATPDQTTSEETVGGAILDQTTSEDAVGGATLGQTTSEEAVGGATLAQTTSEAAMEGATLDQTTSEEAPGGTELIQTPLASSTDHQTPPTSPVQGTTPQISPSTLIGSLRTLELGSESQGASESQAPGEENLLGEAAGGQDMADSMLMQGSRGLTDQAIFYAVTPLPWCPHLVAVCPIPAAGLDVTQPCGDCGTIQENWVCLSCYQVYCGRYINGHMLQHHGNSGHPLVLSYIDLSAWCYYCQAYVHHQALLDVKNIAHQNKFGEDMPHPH
How it was run: as §1

[1] = human recombinant HDAC1, IC50 calculated with GraphPad Prism
[2] = human recombinant HDAC6, IC50 calculated with GraphPad Prism
[3] = human recombinant HDAC1, Fluor de Lys substrate, 30° C. 60 minutes
[4] = human recombinant HDAC6, same protocol as HDAC1

T1 sequence (Q13547 whole entry): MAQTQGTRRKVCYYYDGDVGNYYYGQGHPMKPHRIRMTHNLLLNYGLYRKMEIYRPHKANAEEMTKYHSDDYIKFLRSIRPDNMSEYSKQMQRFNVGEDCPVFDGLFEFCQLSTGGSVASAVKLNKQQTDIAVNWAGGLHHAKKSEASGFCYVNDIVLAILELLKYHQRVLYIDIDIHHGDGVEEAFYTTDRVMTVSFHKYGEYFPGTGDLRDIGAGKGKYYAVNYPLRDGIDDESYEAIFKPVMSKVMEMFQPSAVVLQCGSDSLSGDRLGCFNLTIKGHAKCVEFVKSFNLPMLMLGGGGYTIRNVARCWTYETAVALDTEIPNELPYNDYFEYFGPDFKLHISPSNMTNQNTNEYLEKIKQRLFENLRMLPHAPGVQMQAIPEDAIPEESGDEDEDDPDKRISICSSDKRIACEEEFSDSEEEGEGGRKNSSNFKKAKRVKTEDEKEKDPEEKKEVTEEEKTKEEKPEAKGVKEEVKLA

IC50 (human recombinant HDAC1; [1])	HDAC6 selectivity (fold) (human recombinant HDAC6; HDAC1 IC50 / HDAC6 IC50)	IC50 (human recombinant HDAC6; [2])	IC50 (human recombinant HDAC1; [3])	HDAC6 selectivity (fold) (human recombinant HDAC6; HDAC6 over HDAC1)	IC50 (human recombinant HDAC6; [4])	SMILES
> 50000 nM	875 fold	57.1 nM	–	–	–	CN1CCN(C(=O)c2cccc(-c3cn(Cc4ccc(-c5nnc(C(F)F)o5)cn4)nn3)c2)CC1 [Compound 3887, (3-(1-((5-(5-(difluoromethyl)-1,3,4-oxadiazol-2-yl)pyridin-2-yl)methyl)-1H-1,2,3-triazol-4-yl)phenyl)(4-methylpiperazin-1-yl)methanone]
> 50000 nM	1182 fold	42.3 nM	–	–	–	CCN1CCc2cc(-c3cn(Cc4ccc(-c5nnc(C(F)F)o5)cc4F)nn3)ccc2C1 [Compound 4359, 2-(difluoromethyl)-5-(4-((4-(2-ethyl-1,2,3,4-tetrahydroisoquinolin-6-yl)-1H-1,2,3-triazol-1-yl)methyl)-3-fluorophenyl)-1,3,4-oxadiazole]
> 50000 nM	706 fold	70.8 nM	–	–	–	Fc1cc(-c2nnc(C(F)F)o2)ccc1Cn1cc(-c2ccc3c(c2)CCN(C2CN(C4CCC4)C2)C3)nn1 [Compound 4394, 2-(4-((4-(2-(1-cyclobutylazetidin-3-yl)-1,2,3,4-tetrahydroisoquinolin-6-yl)-1H-1,2,3-triazol-1-yl)methyl)-3-fluorophenyl)-5-(difluoromethyl)-1,3,4-oxadiazole]
–	–	–	> 50000 nM	773 fold	64.6 nM	CN(C)C1CCN(Cc2ccc(-c3cn(Cc4ccc(-c5nnc(C(F)F)o5)cc4)nn3)cc2)CC1 [Compound 4554, 1-(4-(1-(4-(5-(difluoromethyl)-1,3,4-oxadiazol-2-yl)benzyl)-1H-1,2,3-triazol-4-yl)benzyl)-N,N-dimethylpiperidin-4-amine]
> 50000 nM	1089 fold	45.9 nM	–	–	–	CC(C)N1CCc2ccc(-c3cn(Cc4ccc(-c5nnc(C(F)F)o5)cc4F)nn3)cc2C1 [Compound 4365, 2-(difluoromethyl)-5-(3-fluoro-4-((4-(2-isopropyl-1,2,3,4-tetrahydroisoquinolin-7-yl)-1H-1,2,3-triazol-1-yl)methyl)phenyl)-1,3,4-oxadiazole]
> 50000 nM	1101 fold	45.4 nM	–	–	–	CC(C)(C)OC(=O)Nc1cccc(-c2cn(Cc3ccc(-c4nnc(C(F)F)o4)cc3F)nn2)c1 [Compound 3697, Tert-butyl (3-(1-(4-(5-(difluoromethyl)-1,3,4-oxadiazol-2-yl)-2-fluorobenzyl)-1H-1,2,3-triazol-4-yl)phenyl)carbamate]
> 50000 nM	619 fold	80.7 nM	–	–	–	Fc1ccc(-c2cn(Cc3ccc(-c4nnc(C(F)F)o4)cc3)nn2)cc1N1CCNCC1 [Compound 4396, 2-(difluoromethyl)-5-(4-((4-(4-fluoro-3-(piperazin-1-yl)phenyl)-1H-1,2,3-triazol-1-yl)methyl)phenyl)-1,3,4-oxadiazole]
–	–	–	> 50000 nM	1256 fold	39.8 nM	FC(F)c1nnc(-c2ccc(Cn3cc(-c4ccc(CNC5COC5)cc4)nn3)nc2)o1 [Compound 4566, N-(4-(1-((5-(5-(difluoromethyl)-1,3,4-oxadiazol-2-yl)pyridin-2-yl)methyl)-1H-1,2,3-triazol-4-yl)benzyl)oxetan-3-amine]
–	–	–	> 50000 nM	782 fold	63.9 nM	CC(C)N1CCN(c2cccc(-c3cn(Cc4ncc(-c5nnc(C(F)F)o5)cc4F)nn3)c2)CC1 [Compound 18926]
–	–	–	> 50000 nM	237 fold	210 nM	Fc1cc(-c2nnc(C(F)F)o2)ccc1Cn1cc(-c2ccccc2CN2CCCC2)nn1 [Compound 4585, 2-(difluoromethyl)-5-(3-fluoro-4-((4-(2-(pyrrolidin-1-ylmethyl)phenyl)-1H-1,2,3-triazol-1-yl)methyl)phenyl)-1,3,4-oxadiazole]
–	–	–	> 50000 nM	922 fold	54.2 nM	Fc1cc(-c2nnc(C(F)F)o2)ccc1Cn1cc(-c2cc3c(s2)CNCC3)nn1 [Compound 4499, 2-(difluoromethyl)-5-(3-fluoro-4-((4-(4,5,6,7-tetrahydrothieno[2,3-c]pyridin-2-yl)-1H-1,2,3-triazol-1-yl)methyl)phenyl)-1,3,4-oxadiazole]

The next lines start with the compound.

SMILES	IC50 (human recombinant HDAC1; [1])	HDAC6 selectivity (fold) (human recombinant HDAC6; HDAC1 IC50 / HDAC6 IC50)	IC50 (human recombinant HDAC6; [2])	IC50 (human recombinant HDAC1; [3])	HDAC6 selectivity (fold) (human recombinant HDAC6; HDAC6 over HDAC1)	IC50 (human recombinant HDAC6; [4])
CC(C)N1Cc2cccc(-c3cn(Cc4ccc(-c5nnc(C(F)F)o5)cc4F)nn3)c2C1 [Compound 4536, 2-(difluoromethyl)-5-(3-fluoro-4-((4-(2-isopropylisoindolin-4-yl)-1H-1,2,3-triazol-1-yl)methyl)phenyl)-1,3,4-oxadiazole]	–	–	–	> 50000 nM	572 fold	87.4 nM
FC(F)c1nnc(-c2ccc(Cn3cc(C4(F)CCOC4)nn3)nc2)o1 (stereo not drawn) [Compound 4281, 2-(difluoromethyl)-5-(6-((4-(3-fluorotetrahydrofuran-3-yl)-1H-1,2,3-triazol-1-yl)methyl)pyridin-3-yl)-1,3,4-oxadiazole]	> 50000 nM	412 fold	121 nM	–	–	–
Fc1cc(-c2nnc(C(F)F)o2)cnc1Cn1cc(-c2ccccc2CN2CCCC2)nn1 [Compound 18823]	–	–	–	> 50000 nM	131 fold	380 nM
CC(C)(C)OC(=O)N1CCCC(c2cn(Cc3ccc(-c4nnc(C(F)F)o4)cn3)nn2)C1 (stereo not drawn) [Compound 3961, Tert-butyl 3-(1-((5-(5-(difluoromethyl)-1,3,4-oxadiazol-2-yl)pyridin-2-yl)methyl)-1H-1,2,3-triazol-4-yl)piperidin-1-carboxylate]	> 50000 nM	386 fold	129 nM	–	–	–
Fc1cc(-c2nnc(C(F)F)o2)cnc1Cn1cc(-c2ccc(CN3CCCC3)s2)nn1 [Compound 18059, 2-(difluoromethyl)-5-(5-fluoro-6-((4-(5-(pyrrolidin-1-ylmethyl)thiophen-2-yl)-1H-1,2,3-triazol-1-yl)methyl)pyridin-3-yl)-1,3,4-oxadiazole]	–	–	–	> 50000 nM	1295 fold	38.6 nM
FC(F)c1nnc(-c2ccc(Cn3cc(C4CCN(C5CC6(COC6)C5)CC4)nn3)nc2)o1 [Compound 3810, 2-(6-((4-(1-(2-oxaspiro[3.3]heptan-6-yl)piperidin-4-yl)-1H-1,2,3-triazol-1-yl)methyl)pyridin-3-yl)-5-(difluoromethyl)-1,3,4-oxadiazole]	> 50000 nM	178 fold	280 nM	–	–	–
FC(F)c1nnc(-c2ccc(Cn3cc(C4=CCCCC4)nn3)nc2)o1 [Compound 3879, 2-(6-((4-(cyclohex-1-ene-1-yl)-1H-1,2,3-triazol-1-yl)methyl)pyridin-3-yl)-5-(difluoromethyl)-1,3,4-oxadiazole]	> 50000 nM	773 fold	64.6 nM	–	–	–
FC(F)c1nnc(-c2ccc(Cn3cc(-c4cccc5c4CN(C4CCC4)C5)nn3)nc2)o1 [Compound 4598, 2-(6-((4-(2-cyclobutylisoindolin-4-yl)-1H-1,2,3-triazol-1-yl)methyl)pyridin-3-yl)-5-(difluoromethyl)-1,3,4-oxadiazole]	–	–	–	> 50000 nM	1108 fold	45.1 nM
CN1CCC(Nc2ccc(F)c(-c3cn(Cc4ccc(-c5nnc(C(F)F)o5)cc4F)nn3)c2)CC1 [Compound 4435, N-(3-(1-(4-(5-(difluoromethyl)-1,3,4-oxadiazol-2-yl)-2-fluorobenzyl)-1H-1,2,3-triazol-4-yl)-4-fluorophenyl)-1-methylpiperidin-4-amine]	> 50000 nM	1677 fold	29.8 nM	–	–	–
CN(C)Cc1ccc(-c2cn(Cc3ncc(-c4nnc(C(F)F)o4)cc3F)nn2)cc1F [Compound 18949, 1-(4-(1-((5-(5-(difluoromethyl)-1,3,4-oxadiazol-2-yl)-3-fluoropyridin-2-yl)methyl)-1H-1,2,3-triazol-4-yl)-2-fluorophenyl)-N,N-dimethylmethanamine]	–	–	–	> 50000 nM	759 fold	65.8 nM
